ChEMBL document CHEMBL4396971, “Discovery of potent and orally bioavailable indazole-based glucagon receptor antagonists for the treatment of type 2 diabetes” (Bioorg Med Chem Lett, 2019)
Activity calls are given as the source filed them. The rule behind the calls is not given here.

Test system: not listed separately
Experiment: AUClast in Sprague-Dawley rat at 2 mg/kg, iv or 10 mg/kg, po
Type: ADME, organism-based
Settings: in vivo

Row | AUC(0-t) [µM·h] | SMILES
1 | 6.5 | Cc1cc(C(F)(F)F)ccc1-c1cc2cnn([C@@H](CC(C)C)c3ccc(C(=O)NCCC(=O)O)cc3)c2cc1C

Test system: not listed separately
Experiment: AUClast in dog at 2 mg/kg, iv or 10 mg/kg, po
Type: ADME, organism-based, Canis lupus familiaris
Settings: in vivo

Row | AUC(0-t) [µM·h] | SMILES
2 | 422 | Cc1cc(C(F)(F)F)ccc1-c1cc2cnn([C@@H](CC(C)C)c3ccc(C(=O)NCCC(=O)O)cc3)c2cc1C

Test system: not listed separately
Experiment: Cmax in C57 mouse at 5 mg/kg, iv or 20 mg/kg, po
Type: ADME, organism-based
Settings: in vivo

Row | Cmax [µM] | SMILES
3 | 18.9 | Cc1cc(C(F)(F)F)ccc1-c1cc2cnn([C@@H](CC(C)C)c3ccc(C(=O)NCCC(=O)O)cc3)c2cc1C

Test system: not listed separately
Experiment: Cmax in Sprague-Dawley rat at 2 mg/kg, iv or 10 mg/kg, po
Type: ADME, organism-based
Settings: in vivo

Row | Cmax [µM] | SMILES
4 | 0.8 | Cc1cc(C(F)(F)F)ccc1-c1cc2cnn([C@@H](CC(C)C)c3ccc(C(=O)NCCC(=O)O)cc3)c2cc1C

Test system: not listed separately
Experiment: Cmax in dog at 2 mg/kg, iv or 10 mg/kg, po
Type: ADME, organism-based, Canis lupus familiaris
Settings: in vivo

Row | Cmax [µM] | SMILES
5 | 27.7 | Cc1cc(C(F)(F)F)ccc1-c1cc2cnn([C@@H](CC(C)C)c3ccc(C(=O)NCCC(=O)O)cc3)c2cc1C

Test system: not listed separately
Experiment: Oral bioavailability in C57 mouse at 20 mg/kg
Type: ADME, organism-based
Settings: in vivo

Row | bioavailability [%] | SMILES
6 | 70.1 | Cc1cc(C(F)(F)F)ccc1-c1cc2cnn([C@@H](CC(C)C)c3ccc(C(=O)NCCC(=O)O)cc3)c2cc1C

Test system: not listed separately
Experiment: Oral bioavailability in Sprague-Dawley rat at 10 mg/kg
Type: ADME, organism-based
Settings: in vivo

Row | bioavailability [%] | SMILES
7 | 51.9 | Cc1cc(C(F)(F)F)ccc1-c1cc2cnn([C@@H](CC(C)C)c3ccc(C(=O)NCCC(=O)O)cc3)c2cc1C

Test system: not listed separately
Experiment: Oral bioavailability in dog at 10 mg/kg
Type: ADME, organism-based, Canis lupus familiaris
Settings: in vivo

Row | bioavailability [%] | SMILES
8 | 39.5 | Cc1cc(C(F)(F)F)ccc1-c1cc2cnn([C@@H](CC(C)C)c3ccc(C(=O)NCCC(=O)O)cc3)c2cc1C

Test system: not listed separately
Experiment: Protein binding in human plasma at 1 uM
Type: ADME, cell-free
Settings: read-out: PPB

Row | fraction unbound at 1 µM | SMILES
9 | 0.0001 | Cc1cc(C(F)(F)F)ccc1-c1cc2cnn([C@@H](CC(C)C)c3ccc(C(=O)NCCC(=O)O)cc3)c2cc1C

Target: T1, Cytochrome P450 3A4 (Homo sapiens, UniProt P08684)
T1 sequence (P08684 whole entry): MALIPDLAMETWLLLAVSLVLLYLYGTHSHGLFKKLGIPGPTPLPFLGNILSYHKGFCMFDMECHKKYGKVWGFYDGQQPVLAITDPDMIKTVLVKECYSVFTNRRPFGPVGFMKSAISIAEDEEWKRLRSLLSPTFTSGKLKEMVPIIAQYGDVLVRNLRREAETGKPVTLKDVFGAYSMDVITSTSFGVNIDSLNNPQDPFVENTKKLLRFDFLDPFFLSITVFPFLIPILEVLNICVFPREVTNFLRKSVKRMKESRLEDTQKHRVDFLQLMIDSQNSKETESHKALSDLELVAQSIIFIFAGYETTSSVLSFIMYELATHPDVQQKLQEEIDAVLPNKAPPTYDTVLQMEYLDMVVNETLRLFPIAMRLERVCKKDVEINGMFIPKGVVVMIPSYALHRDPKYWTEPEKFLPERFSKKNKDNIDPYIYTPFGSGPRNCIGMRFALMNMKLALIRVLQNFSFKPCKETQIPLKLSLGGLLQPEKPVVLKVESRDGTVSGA
Experiment: Inhibition of CYP3A4 (unknown origin) using testosterone as substrate
Type: ADME
Settings: not given

Row | IC50 [µM] | SMILES
10 | > 10 | Cc1cc(C(F)(F)F)ccc1-c1cc2cnn([C@@H](CC(C)C)c3ccc(C(=O)NCCC(=O)O)cc3)c2cc1C

Target: T1, Cytochrome P450 3A4
Experiment: Inhibition of CYP3A4 (unknown origin) using midazolam as substrate
Type: ADME
Settings: not given

Row | IC50 [µM] | SMILES
11 | > 10 | Cc1cc(C(F)(F)F)ccc1-c1cc2cnn([C@@H](CC(C)C)c3ccc(C(=O)NCCC(=O)O)cc3)c2cc1C

Target: Cytochrome P450 2C19 (Homo sapiens, UniProt P33261)
Sequence (P33261 whole entry): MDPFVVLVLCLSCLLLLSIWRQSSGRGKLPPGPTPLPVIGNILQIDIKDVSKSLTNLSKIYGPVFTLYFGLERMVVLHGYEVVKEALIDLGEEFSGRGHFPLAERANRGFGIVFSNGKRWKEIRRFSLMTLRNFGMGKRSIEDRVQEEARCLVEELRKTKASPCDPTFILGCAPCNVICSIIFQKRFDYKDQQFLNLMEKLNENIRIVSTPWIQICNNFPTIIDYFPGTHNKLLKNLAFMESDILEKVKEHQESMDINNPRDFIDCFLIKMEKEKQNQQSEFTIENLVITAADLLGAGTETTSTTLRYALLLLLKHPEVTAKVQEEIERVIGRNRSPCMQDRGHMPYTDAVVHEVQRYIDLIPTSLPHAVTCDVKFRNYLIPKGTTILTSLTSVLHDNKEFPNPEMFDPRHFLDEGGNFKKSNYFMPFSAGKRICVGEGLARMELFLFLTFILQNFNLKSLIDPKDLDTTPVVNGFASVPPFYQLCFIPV
Experiment: Inhibition of CYP2C19 (unknown origin) using S-Mephenytoin as substrate
Type: ADME
Settings: not given

Row | IC50 [µM] | SMILES
12 | > 10 | Cc1cc(C(F)(F)F)ccc1-c1cc2cnn([C@@H](CC(C)C)c3ccc(C(=O)NCCC(=O)O)cc3)c2cc1C

Target: Cytochrome P450 2C9 (Homo sapiens, UniProt P11712)
Sequence (P11712 whole entry): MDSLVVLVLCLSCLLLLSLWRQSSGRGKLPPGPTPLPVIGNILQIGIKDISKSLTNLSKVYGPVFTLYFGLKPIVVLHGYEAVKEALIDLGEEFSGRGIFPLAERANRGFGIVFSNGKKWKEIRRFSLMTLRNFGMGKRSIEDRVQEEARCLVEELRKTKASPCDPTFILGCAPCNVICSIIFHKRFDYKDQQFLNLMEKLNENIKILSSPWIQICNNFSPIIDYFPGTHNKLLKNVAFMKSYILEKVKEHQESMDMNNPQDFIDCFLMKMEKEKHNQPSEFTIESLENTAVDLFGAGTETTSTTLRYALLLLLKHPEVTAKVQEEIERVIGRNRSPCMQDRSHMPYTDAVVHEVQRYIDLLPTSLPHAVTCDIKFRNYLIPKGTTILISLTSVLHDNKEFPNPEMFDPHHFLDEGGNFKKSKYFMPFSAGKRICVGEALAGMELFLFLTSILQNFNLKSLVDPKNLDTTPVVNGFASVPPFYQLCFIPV
Experiment: Inhibition of CYP2C9 (unknown origin) using tolbutamide as substrate
Type: ADME
Settings: not given

Row | IC50 [µM] | SMILES
13 | > 10 | Cc1cc(C(F)(F)F)ccc1-c1cc2cnn([C@@H](CC(C)C)c3ccc(C(=O)NCCC(=O)O)cc3)c2cc1C

Target: T2, Cytochrome P450 1A2 (Homo sapiens, UniProt P05177)
T2 sequence (P05177 whole entry): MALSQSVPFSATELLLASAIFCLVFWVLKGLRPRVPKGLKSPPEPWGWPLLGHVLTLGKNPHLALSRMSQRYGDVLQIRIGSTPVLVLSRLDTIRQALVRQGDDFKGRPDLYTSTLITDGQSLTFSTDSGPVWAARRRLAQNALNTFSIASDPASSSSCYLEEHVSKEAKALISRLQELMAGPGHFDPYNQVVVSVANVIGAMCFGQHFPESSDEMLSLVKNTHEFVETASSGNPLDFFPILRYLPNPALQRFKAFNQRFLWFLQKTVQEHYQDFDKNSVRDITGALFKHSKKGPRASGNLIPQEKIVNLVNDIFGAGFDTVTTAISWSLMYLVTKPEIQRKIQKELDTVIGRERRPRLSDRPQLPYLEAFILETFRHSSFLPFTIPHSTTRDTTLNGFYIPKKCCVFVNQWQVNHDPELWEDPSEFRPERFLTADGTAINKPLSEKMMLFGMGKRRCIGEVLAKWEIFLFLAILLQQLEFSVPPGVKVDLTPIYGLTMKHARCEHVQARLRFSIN
Experiment: Inhibition of CYP1A2 (unknown origin) using phenacetin as substrate
Type: ADME
Settings: not given

Row | IC50 [µM] | SMILES
14 | > 10 | Cc1cc(C(F)(F)F)ccc1-c1cc2cnn([C@@H](CC(C)C)c3ccc(C(=O)NCCC(=O)O)cc3)c2cc1C

Target: Cytochrome P450 2D6 (Homo sapiens, UniProt P10635)
Sequence (P10635 whole entry): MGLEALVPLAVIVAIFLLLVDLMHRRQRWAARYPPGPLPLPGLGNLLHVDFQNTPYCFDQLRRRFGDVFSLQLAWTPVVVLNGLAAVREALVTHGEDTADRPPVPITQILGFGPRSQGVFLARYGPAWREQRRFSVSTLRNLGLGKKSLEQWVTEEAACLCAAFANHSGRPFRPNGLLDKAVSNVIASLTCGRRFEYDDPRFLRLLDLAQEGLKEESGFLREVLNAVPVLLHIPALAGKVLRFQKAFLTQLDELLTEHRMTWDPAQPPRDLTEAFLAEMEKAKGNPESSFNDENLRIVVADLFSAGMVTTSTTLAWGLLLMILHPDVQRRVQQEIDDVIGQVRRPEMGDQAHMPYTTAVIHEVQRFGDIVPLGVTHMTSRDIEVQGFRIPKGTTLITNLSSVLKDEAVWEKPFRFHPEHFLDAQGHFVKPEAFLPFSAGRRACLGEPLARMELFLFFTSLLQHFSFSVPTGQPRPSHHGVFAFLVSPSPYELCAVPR
Experiment: Inhibition of CYP2D6 (unknown origin) using dextromethorphan as substrate
Type: ADME
Settings: not given

Row | IC50 [µM] | SMILES
15 | > 10 | Cc1cc(C(F)(F)F)ccc1-c1cc2cnn([C@@H](CC(C)C)c3ccc(C(=O)NCCC(=O)O)cc3)c2cc1C

Target: not listed separately
Experiment: Antagonist activity at GCGR in dog hepatocytes assessed as inhibition of glucagon-induced cAMP by LANCE TR-FRET assay
Type: cell-based, Canis lupus familiaris
Settings: not given

Row | Ki [µM] | SMILES
16 | 0.03 | Cc1cc(C(F)(F)F)ccc1-c1cc2cnn([C@@H](CC(C)C)c3ccc(C(=O)NCCC(=O)O)cc3)c2cc1C

Test system: Canis familiaris
Experiment: Antidiabetic activity in Beagle dog assessed as reduction in blood glucose level at 10 mg/kg, po administered via gavage as single dose 90 mins prior to glucagon challenge measured up to 60 mins post glucagon challenge by glucometer analysis
Type: functional, organism-based
Settings: Canis lupus familiaris

Row | SMILES | inhibition
17 | Cc1cc(C(F)(F)F)ccc1-c1cc2cnn([C@@H](CC(C)C)c3ccc(C(=O)NCCC(=O)O)cc3)c2cc1C | Active

Test system: Canis familiaris
Experiment: Antidiabetic activity in Beagle dog assessed as reduction in blood glucose AUC at 10 mg/kg, po administered via gavage as single dose 90 mins prior to glucagon challenge by glucometer analysis
Type: functional, organism-based
Settings: Canis lupus familiaris

Row | SMILES | inhibition
18 | Cc1cc(C(F)(F)F)ccc1-c1cc2cnn([C@@H](CC(C)C)c3ccc(C(=O)NCCC(=O)O)cc3)c2cc1C | Active
